From patent EP0359821A1, “METHOD OF STERILIZING PLANT ANTHERS” (priority 1988, dated 1989)
Read-outs that look alike come from different tables or passages of the source.

Assays:
[1] = tested on: Winterweizens Sorte Mironovskaya 808; assay: Field trial of gametocidal activity (anther sterilisation), winter wheat; type: in vivo, Weizen; conditions: 2% aqueous emulsion, 20 kg/ha
[2] = tested on: Sommerweizen Sorte Moskovskaya 35; assay: Field trial of gametocidal activity, spring wheat; type: in vivo, Weizen; conditions: 1% aqueous emulsion; for Anzahl von Körnern der Ähre bei freier Bestäubung / Anzahl von Körnern der Ähre im Isolator / percent sterility at 10000 g/ha: V. period; for percent sterility at 10000 g/ha: read-out: Prozentsatz der Sterilität
[3] = tested on: Diploider Roggen Sorte Chulpan; assay: Field trial of gametocidal activity, diploid rye Chulpan; type: in vivo
From the text: (§1) Bei Weizen und Tritikale werden Einzelisolatoren verwendet.
Pflanzen von diploidem Roggen Sorte Chulpan werden in der V. oder VI.
Der Verbrauch an Sterilisationsmitteln beträgt 10 kg/ha.

[4] = tested on: Tetraploider Roggen Sorte Ukrainskaya tetra; assay: Field trial of gametocidal activity, tetraploid rye Ukrainskaya tetra; type: in vivo; conditions: 1% aqueous emulsion, 10 kg/ha, V. or VI. period
Tritikale Sorte PRAG I09 = assay: Field trial of gametocidal activity, triticale; type: in vivo; conditions: 1% aqueous emulsion, 12 kg/ha
From the text: as §1
Pflanzen von Tritikale Sorte PRAG I09 werden in der V. und VI.
Der Verbrauch an Sterilisationsmittel beträgt 12 kg/ha.

[5] = tested on: Hirse Sorte Mironovskoe 94; assay: Field trial of gametocidal activity, millet Mironovskoe 94; type: in vivo; conditions: 1% aqueous emulsion, 10 kg/ha; for Anzahl von Körnern der Rispe bei freier Bestäubung / Anzahl von Körnern der Rispe im Isolator / percent pollen sterility at 10000 g/ha: V. or VI. period; for percent pollen sterility at 10000 g/ha: read-out: Prozentsatz der Sterilität; for response vs control in vivo at 10000 g/ha: control = 100, read-out: Prozentsatz des Ansetzens bei freier Bestäubung
[6] = tested on: Sonnenblume Sorte Peredovik; assay: Field trial of pollen sterilisation, sunflower Peredovik; type: in vivo; conditions: 0,2% aqueous emulsion, 1,2 kg/ke (so in the source)
From the text: Pflanzen der Sonnenblume Sorte Peredovik werden in der V. oder VI.
Der Verbrauch an Sterilisationsmittel beträgt 1,2 kg/ke.

Sonnenblume Linie VK 119 = assay: Field trial of pollen sterilisation, sunflower line VK 119; conditions: 0,2% aqueous emulsion, 1,2 kg/ha
Roggen Sorte Voskhod 2 = assay: Field trial of gametocidal activity, diploid rye Voskhod 2; type: in vivo; conditions: 1% aqueous emulsion, 8 kg/ha
[7] = tested on: Tetraploider Roggen Sorte Belta; assay: Field trial of gametocidal activity, tetraploid rye Belta; type: in vivo; conditions: 1% aqueous emulsion, 10 kg/ha
[8] = tested on: Tetraploider Roggen Sorte Jubileinaya; assay: Field trial of gametocidal activity, tetraploid rye Jubileinaya; conditions: 1% aqueous emulsion, 10 kg/ha; for Prozentsatz des Ansetzens bei freier Bestäubung: control = 100
in vivo = conditions: mouse
[9] = tested on: Tetraploider Roggen Sorte Gibrid 67; assay: Field trial of gametocidal activity, tetraploid rye Gibrid 67; type: in vivo; conditions: 1% aqueous emulsion, 10 kg/ha, V. or VI. period
From the text: as §1
Pflanzen von tetraploidem Roggen Sorte Gibrid 67 werden in der V. oder VI.

[10] = V. or VI. period of organogenesis
[11] = control = 100, read-out: Prozentsatz des Ansetzens bei freier Bestäubung
[12] = Chulpan, single compounds, 1% aqueous emulsion, 10 kg/ha, V. or VI. period

SMILES	Anzahl von Körnern der Ähre bei freier Bestäubung ([2]; 10 kg/ha)	Anzahl von Körnern der Ähre im Isolator ([2]; 10 kg/ha)	percent sterility at 10000 g/ha ([2]; 10 kg/ha) [%]	Anzahl von Körnern der Ähre bei freier Bestäubung [3, 12]	Anzahl von Körnern der Ähre im Isolator [3, 12]	Anzahl von Körnern der Rispe bei freier Bestäubung [5]	Anzahl von Körnern der Rispe im Isolator [5]	percent pollen sterility at 10000 g/ha [5] [%]	response vs control in vivo at 10000 g/ha [5] [%]	Anzahl von Körnern der Ähre bei freier Bestäubung ([7]; V. or VI. period)	Anzahl von Körnern der Ähre im Isolator ([7]; V. or VI. period)	Anzahl von Körnern der Ähre im Isolator ([8]; V. or VI. period)	Prozentsatz des Ansetzens bei freier Bestäubung [8]	further results
OCC(O)COc1ccc(Cl)cc1 (stereo not drawn) [Beispiel 3, 3-(4'-Chlorphenoxy)-propandiol-1,2]	25,8	0,0	100	47,2	0,0	284,7	0,0	100	75					Anzahl von Körnern der Ähre bei freier Bestäubung [1, 10]: 28,6; Anzahl von Körnern der Ähre im Isolator [1, 10]: 0,6; percent sterility at 20000 g/ha ([1]; V. or VI. period of organogenesis, read-out: Prozentsatz der Sterilität): 98.4%; response vs control in vivo at 20000 g/ha [1, 11]: 70.6%; response vs control in vivo [2, 11]: 93.8%; percent sterility at 10000 g/ha ([3]; Chulpan, single compounds, 1% aqueous emulsion, 10 kg/ha, V. or VI. period, read-out: Prozentsatz der Sterilität): 100%; response vs control in vivo at 10000 g/ha ([3]; read-out: Prozentsatz des Ansetzens bei freier Bestäubung, Chulpan, single compounds, 1% aqueous emulsion, 10 kg/ha, control = 100): 83.2%; Anzahl von Körnern der Ähre bei freier Bestäubung [4]: 40,7; Anzahl von Körnern der Ähre im Isolator [4]: 0,0; Anzahl von Körnern der Ähre im Isolator (Tritikale Sorte PRAG I09; V. and VI. period): 0,0; Prozentsatz des Ansetzens bei freier Bestäubung (Tritikale Sorte PRAG I09; control = 100): 89,0%; Pollensterilität in % [6]: 100%; Ansetzen von Achänen bei freier Bestäubung in % ([6]; V. or VI. period): 81,7%; Ansetzen von Achänen im Isolator bei der Bestäubung mit dem Pollengemisch in % ([6]; V. or VI. period): 0,0%; Ansetzen von Achänen bei freier Bestäubung in % (Sonnenblume Linie VK 119): 84,4%; Ansetzen von Achänen im Isolator bei der Bestäubung mit dem Pollengemisch in % (Sonnenblume Linie VK 119): 0,0%; Pollensterilität in % (Sonnenblume Linie VK 119): 100%
OCC(O)COc1ccccc1F (stereo not drawn) [Beispiel 21, 3-(2'-Fluorophenoxy)-propandiol-1,2]	26,2	0,1	99.9			307,5	0,0	100	81	40,7	0,0	0,0	97,5%	response vs control in vivo at 10000 g/ha ([2]; 10 kg/ha, control = 100, read-out: Prozentsatz des Ansetzens bei freier Bestäubung): 95.3%; Anzahl von Körnern der Ähre bei freier Bestäubung (Roggen Sorte Voskhod 2; V. or VI. period): 46,8; Anzahl von Körnern der Ähre im Isolator (Roggen Sorte Voskhod 2; V. or VI. period): 0,3; Prozentsatz der Sterilität (Roggen Sorte Voskhod 2; V. or VI. period): 99,4%; Prozentsatz des Ansetzens bei freier Bestäubung (Roggen Sorte Voskhod 2; control = 100): 85,7%
O=C(O)c1ccccc1C(=O)O [Beispiel 55, Phthalsäuremonoäthanolaminsalz]				55,6	3,1	350,9	0,0	100	92.5	44,0	0,3	0,0	95,0%	pest or weed control at 10000 g/ha ([3]; read-out: Prozentsatz der Sterilität): 94%; response vs control in vivo at 10000 g/ha ([3]; read-out: Prozentsatz des Ansetzens bei freier Bestäubung): 98.1%; percent sterility at 10000 g/ha ([7]; V. or VI. period, read-out: Prozentsatz der Sterilität): 99.3%; response vs control in vivo at 10000 g/ha [7, 11]: 99.3%; LD50 (in vivo): 1100 mg/kg; Anzahl von Körnern der Ähre bei freier Bestäubung ([8]; V. or VI. period): 46,0
O=C(O)c1ccccc1O [Beispiel 62, Äthanolaminsalz der Salizylsäure]														Anzahl von Körnern der Ähre bei freier Bestäubung [9]: 40,8; Anzahl von Körnern der Ähre im Isolator [9]: 0,0
